We go through 19 compounds from patent US10745382B2 (BRISTOL-MYERS SQUIBB COMPANY, priority 2015, dated 2020).

Each structure is given as a SMILES string.

The target of this assay is T1, PD-1/PD-L1 (Homo sapiens, UniProt Q9NZQ7).
T1 construct: made in house; host or cells: HEK293T
T1 sequence (Q9NZQ7 with tags, fused parts or gaps): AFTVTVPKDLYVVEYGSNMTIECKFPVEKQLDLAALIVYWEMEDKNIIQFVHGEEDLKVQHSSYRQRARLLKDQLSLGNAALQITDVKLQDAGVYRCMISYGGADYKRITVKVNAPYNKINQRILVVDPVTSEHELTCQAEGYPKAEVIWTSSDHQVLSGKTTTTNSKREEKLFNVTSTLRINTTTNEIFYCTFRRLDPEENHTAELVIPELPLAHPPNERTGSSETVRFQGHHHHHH
The assay can be described thus: PD-1/PD-L1 Homogenous Time-Resolved Fluorescence (HTRF) binding assay. As to conditions: PD-L1-His 10 nM, PD-1-Ig 20 nM; value given as range class; read-out: Range or IC50. The essentials:
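Additional pairs run were PD-1-Ig with PD-L2-His (20 & 5 nM) and CD80-His with PD-L1-Ig (100 & 10 nM), all human proteins. Buffer: dPBS plus 0.1% BSA, 0.05% Tween-20; time-resolved FRET read-out via 1 nM Eu-cryptate anti-Ig and 20 nM APC anti-His, final concentrations.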
As to `COC(=O)C1(O)CCN(CCCOc2cccc(-c3cccc(COc4cc(OCc5cncc(C#N)c5)c(CN[C@](C)(CO)C(=O)O)cc4Cl)c3C)c2C)CC1` [Example 1030, (R)-2-((5-chloro-2-((5-cyanopyridin-3-yl)methoxy)-4-((3′-(3-(4-hydroxy-4-(methoxycarbonyl)piperidin-1-yl)propoxy)-2,2′-dimethyl-[1,1′-biphenyl]-3-yl)methoxy)benzyl)amino)-3-hydroxy-2-methylpropanoic Acid], the IC50 fell in the range of 0.00021 to 0.01 µM.
Then `C=CC(=O)NCCNCc1cc(Cl)c(OCc2cccc(-c3cccc(OCCCN4CC[C@@H](O)C4)c3C)c2C)cc1OCc1cncc(C#N)c1` [Example 1031, (R)—N-(2-((5-chloro-2-((5-cyanopyridin-3-yl)methoxy)-4-((3′-(3-(3-hydroxypyrrolidin-1-yl)propoxy)-2,2′-dimethyl-[1,1′-biphenyl]-3-yl)methoxy)benzyl)amino)ethyl)acrylamide], with 0.01 to 0.1 µM; and `Cc1c(COc2cc(OCc3cncc(C(N)=O)c3)c(CN[C@H](CO)C(=O)O)cc2Cl)cccc1-c1cccc(OCCCN2CCC(O)(C(=O)O)CC2)c1` [Example 1032, (R)-1-(3-((3′-((5-((5-carbamoylpyridin-3-yl)methoxy)-4-(((1-carboxy-2-hydroxyethyl)amino)methyl)-2-chlorophenoxy)methyl)-2′-methyl-[1,1′-biphenyl]-3-yl)oxy)propyl)-4-hydroxypiperidine-4-carboxylic Acid], with 0.00021 to 0.01 µM; and `Cc1c(COc2cc(OCc3cncc(C#N)c3)c(CN[C@H](CO)C(=O)O)cc2Cl)cccc1-c1cccc(OCCCN2CCC(O)(C(=O)O)CC2)c1` [Example 1033, (R)-1-(3-((3′-((4-(((1-carboxy-2-hydroxyethyl)amino)methyl)-2-chloro-5-((5-cyanopyridin-3-yl)methoxy)phenoxy)methyl)-2′-methyl-[1,1′-biphenyl]-3-yl)oxy)propyl)-4-hydroxypiperidine-4-carboxylic Acid], with 0.00021 to 0.01 µM.
For `C=CC(=O)NCCNCc1cc(Cl)c(OCc2cccc(-c3cccc(OCCCN4CC[C@@H](O)C4)c3C)c2C)cc1OCc1cncc(S(C)(=O)=O)c1` [Example 1034, (R)—N-(2-((5-chloro-4-((3′-(3-(3-hydroxypyrrolidin-1-yl)propoxy)-2,2′-dimethyl-[1,1′-biphenyl]-3-yl)methoxy)-2-((5-(methylsulfonyl)pyridin-3-yl)methoxy)benzyl)amino)ethyl)acrylamide], the IC50 lay in the range of 0.01 to 0.1 µM.
The figure for `Cc1c(COc2cc(OCc3cncc(C(N)=O)c3)c(CN[C@H](CO)C(=O)O)cc2Cl)cccc1-c1cccc(OCCCN2CCC(O)(C(=O)O)CC2)c1C` [Example 1035, (R)-1-(3-((3′-((5-((5-carbamoylpyridin-3-yl)methoxy)-4-(((1-carboxy-2-hydroxyethyl)amino)methyl)-2-chlorophenoxy)methyl)-2,2′-dimethyl-[1,1′-biphenyl]-3-yl)oxy)propyl)-4-hydroxypiperidine-4-carboxylic Acid] is 0.00021 to 0.01 µM; for `Cc1c(COc2cc(OCc3cncc(C#N)c3)c(CN[C@H](CO)C(=O)O)cc2Cl)cccc1-c1cccc(OCCCN2CCC(O)(C(=O)O)CC2)c1C` [Example 1036, (R)-1-(3-((3′-((4-(((1-carboxy-2-hydroxyethyl)amino)methyl)-2-chloro-5-((5-cyanopyridin-3-yl)methoxy)phenoxy)methyl)-2,2′-dimethyl-[1,1′-biphenyl]-3-yl)oxy)propyl)-4-hydroxypiperidine-4-carboxylic Acid] it is 0.00021 to 0.01 µM.
Then `Cc1c(COc2cc(OCc3cncc(C#N)c3)c(CN[C@](C)(CO)C(=O)O)cc2Cl)cccc1-c1cccc(OCCCN2CCC(O)(C(=O)O)CC2)c1C` [Example 1037, (R)-1-(3-((3′-((4-(((2-carboxy-1-hydroxypropan-2-yl)amino)methyl)-2-chloro-5-((5-cyanopyridin-3-yl)methoxy)phenoxy)methyl)-2,2′-dimethyl-[1,1′-biphenyl]-3-yl)oxy)propyl)-4-hydroxypiperidine-4-carboxylic Acid], with 0.00021 to 0.01 µM.
In the case of `COC(=O)C1(O)CCN(CCCOc2cccc(-c3cccc(COc4cc(OCc5cncc(S(C)(=O)=O)c5)c(CN[C@H](CO)C(=O)O)cc4Cl)c3C)c2C)CC1` [Example 1038, (R)-2-((5-chloro-4-((3′-(3-(4-hydroxy-4-(methoxycarbonyl)piperidin-1-yl)propoxy)-2,2′-dimethyl-[1,1′-biphenyl]-3-yl)methoxy)-2-((5-(methylsulfonyl)pyridin-3-yl)methoxy)benzyl)amino)-3-hydroxypropanoic Acid], the IC50 was in the range of 0.00021 to 0.01 µM.
Then `COC(=O)C1(O)CCN(CCCOc2cccc(-c3cccc(COc4cc(OCc5cncc(S(C)(=O)=O)c5)c(CN[C@@](C)(CO)C(=O)O)cc4Cl)c3C)c2C)CC1` [Example 1039, (S)-2-((5-chloro-4-((3′-(3-(4-hydroxy-4-(methoxycarbonyl)piperidin-1-yl)propoxy)-2,2′-dimethyl-[1,1′-biphenyl]-3-yl)methoxy)-2-((5-(methylsulfonyl)pyridin-3-yl)methoxy)benzyl)amino)-3-hydroxy-2-methylpropanoic Acid], with 0.00021 to 0.01 µM; and `Cc1c(COc2cc(OCc3cncc(S(C)(=O)=O)c3)c(CN[C@H](CO)C(=O)O)cc2Cl)cccc1-c1cccc(OCCCN2CCC(O)(C(=O)O)CC2)c1C` [Example 1040, (R)-1-(3-((3′-((4-(((1-carboxy-2-hydroxyethyl)amino)methyl)-2-chloro-5-((5-(methylsulfonyl)pyridin-3-yl)methoxy)phenoxy)methyl)-2,2′-dimethyl-[1,1′-biphenyl]-3-yl)oxy)propyl)-4-hydroxypiperidine-4-carboxylic Acid], with 0.00021 to 0.01 µM; and `Cc1c(COc2cc(OCc3cncc(S(C)(=O)=O)c3)c(CN[C@@](C)(CO)C(=O)O)cc2Cl)cccc1-c1cccc(OCCCN2CCC(O)(C(=O)O)CC2)c1C` [Example 1041, (S)-1-(3-((3′-((4-(((2-carboxy-1-hydroxypropan-2-yl)amino)methyl)-2-chloro-5-((5-(methylsulfonyl)pyridin-3-yl)methoxy)phenoxy)methyl)-2,2′-dimethyl-[1,1′-biphenyl]-3-yl)oxy)propyl)-4-hydroxypiperidine-4-carboxylic Acid], with 0.00021 to 0.01 µM.
The figure for `Cc1c(COc2cc(OCc3cncc(C#N)c3)c(CN[C@H](CO)C(=O)O)cc2Cl)cccc1-c1cccc(OC[C@@H]2CCCN3CCCC[C@H]23)c1C` [Example 1042, (R)-2-((5-chloro-2-((5-cyanopyridin-3-yl)methoxy)-4-((2,2′-dimethyl-3′-(((1R,9aR)-octahydro-1H-quinolizin-1-yl)methoxy)-[1,1′-biphenyl]-3-yl)methoxy)benzyl)amino)-3-hydroxypropanoic Acid] is 0.00021 to 0.01 µM.
The figure for `Cc1c(COc2cc(OCc3cncc(C#N)c3)c(CN3CCCC[C@H]3C(=O)O)cc2Cl)cccc1-c1cccc(OC[C@@H]2CCCN3CCCC[C@H]23)c1C` [Example 1043, (S)-1-(5-chloro-2-((5-cyanopyridin-3-yl)methoxy)-4-((2,2′-dimethyl-3′-(((1R,9aR)-octahydro-1H-quinolizin-1-yl)methoxy)-[1,1′-biphenyl]-3-yl)methoxy)benzyl)piperidine-2-carboxylic Acid] is 0.00021 to 0.01 µM.
Turning to `CCOC(=O)C1(CO)CCN(CCCOc2cccc(-c3cccc(COc4cc(OCc5cncc(S(C)(=O)=O)c5)c(CN[C@](C)(CO)C(=O)O)cc4Cl)c3C)c2C)C1` (stereo partly drawn) [Example 1044, (2R)-2-((5-chloro-4-((3′-(3-(3-(ethoxycarbonyl)-3-(hydroxymethyl)pyrrolidin-1-yl)propoxy)-2,2′-dimethyl-[1,1′-biphenyl]-3-yl)methoxy)-2-((5-(methylsulfonyl)pyridin-3-yl)methoxy)benzyl)amino)-3-hydroxy-2-methylpropanoic Acid], the IC50 was in the range of 0.00021 to 0.01 µM.
Take `CCOC(=O)C1(CO)CCN(CCCOc2cccc(-c3cccc(COc4cc(OCc5cncc(S(C)(=O)=O)c5)c(CN[C@H](CO)C(=O)O)cc4Cl)c3C)c2C)C1` (stereo partly drawn) [Example 1045, (2R)-2-((5-chloro-4-((3′-(3-(3-(ethoxycarbonyl)-3-(hydroxymethyl)pyrrolidin-1-yl)propoxy)-2,2′-dimethyl-[1,1′-biphenyl]-3-yl)methoxy)-2-((5-(methylsulfonyl)pyridin-3-yl)methoxy)benzyl)amino)-3-hydroxypropanoic Acid]: the IC50 was 0.00021 to 0.01 µM.
Then `COC(=O)C1(O)CCN(CCCOc2cccc(-c3cccc(COc4cc(OCc5cncc(C#N)c5)c(CN[C@](C)(CO)C(=O)O)cc4Cl)c3C)c2C)C1` (stereo partly drawn) [Example 1046, (2R)-2-((5-chloro-2-((5-cyanopyridin-3-yl)methoxy)-4-((3′-(3-(3-hydroxy-3-(methoxycarbonyl)pyrrolidin-1-yl)propoxy)-2,2′-dimethyl-[1,1′-biphenyl]-3-yl)methoxy)benzyl)amino)-3-hydroxy-2-methylpropanoic Acid], with 0.00021 to 0.01 µM.
Then `CCOC(=O)C1(CO)CCN(CCCOc2cccc(-c3cccc(COc4cc(OCc5cncc(C#N)c5)c(CN[C@H](CO)C(=O)O)cc4Cl)c3C)c2C)C1` (stereo partly drawn) [Example 1047, (2R)-2-((5-chloro-2-((5-cyanopyridin-3-yl)methoxy)-4-((3′-(3-(3-(ethoxycarbonyl)-3-(hydroxymethyl)pyrrolidin-1-yl)propoxy)-2,2′-dimethyl-[1,1′-biphenyl]-3-yl)methoxy)benzyl)amino)-3-hydroxypropanoic Acid], with 0.00021 to 0.01 µM.
Then `Cc1c(COc2cc(OCc3cncc(S(C)(=O)=O)c3)c(CN[C@](C)(CO)C(=O)O)cc2Cl)cccc1-c1cccc(OCCCN2CCC(CO)(C(=O)O)C2)c1C` (stereo partly drawn) [Example 1048, 1-(3-((3′-((4-((((R)-2-carboxy-1-hydroxypropan-2-yl)amino)methyl)-2-chloro-5-((5-(methylsulfonyl)pyridin-3-yl)methoxy)phenoxy)methyl)-2,2′-dimethyl-[1,1′-biphenyl]-3-yl)oxy)propyl)-3-(hydroxymethyl)pyrrolidine-3-carboxylic Acid], with 0.00021 to 0.01 µM.
